This note sets out measurements from ChEMBL document CHEMBL5465560, “Selectivity Literature for EUbOPEN Chemogenomic Library” (2024).

The target of test [1] is T1, Ephrin type-B receptor 6 (Homo sapiens) (UniProt O15197).
T1 sequence (whole entry): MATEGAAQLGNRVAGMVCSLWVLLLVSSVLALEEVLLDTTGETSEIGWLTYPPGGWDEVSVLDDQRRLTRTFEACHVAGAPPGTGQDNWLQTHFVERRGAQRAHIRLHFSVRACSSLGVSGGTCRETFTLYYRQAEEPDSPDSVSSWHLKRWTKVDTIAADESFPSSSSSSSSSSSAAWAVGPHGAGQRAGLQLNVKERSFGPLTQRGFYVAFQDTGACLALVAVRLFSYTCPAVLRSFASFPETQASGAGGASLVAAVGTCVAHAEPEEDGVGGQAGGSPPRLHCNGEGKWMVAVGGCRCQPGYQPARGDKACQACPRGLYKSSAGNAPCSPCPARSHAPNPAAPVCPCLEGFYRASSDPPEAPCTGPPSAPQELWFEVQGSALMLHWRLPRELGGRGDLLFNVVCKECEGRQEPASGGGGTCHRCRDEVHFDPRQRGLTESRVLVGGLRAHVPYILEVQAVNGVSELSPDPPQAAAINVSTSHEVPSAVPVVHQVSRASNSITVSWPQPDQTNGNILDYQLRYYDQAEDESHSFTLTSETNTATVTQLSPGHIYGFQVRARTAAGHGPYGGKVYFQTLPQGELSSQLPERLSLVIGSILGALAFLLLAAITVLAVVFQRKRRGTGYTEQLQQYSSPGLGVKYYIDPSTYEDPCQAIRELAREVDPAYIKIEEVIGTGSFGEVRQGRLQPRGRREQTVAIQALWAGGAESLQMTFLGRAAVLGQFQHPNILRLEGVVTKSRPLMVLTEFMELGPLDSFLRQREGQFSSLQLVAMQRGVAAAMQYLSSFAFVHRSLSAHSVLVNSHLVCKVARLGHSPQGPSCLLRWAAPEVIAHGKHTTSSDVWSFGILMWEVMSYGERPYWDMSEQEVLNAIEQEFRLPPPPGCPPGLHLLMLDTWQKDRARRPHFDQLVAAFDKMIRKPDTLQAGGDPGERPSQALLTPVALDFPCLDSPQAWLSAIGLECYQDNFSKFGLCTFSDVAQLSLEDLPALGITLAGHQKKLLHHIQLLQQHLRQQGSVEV
The test can be described thus: Selectivity interaction (KinomeScan (DiscoverX)) EUB0000092b EPHB6. Conditions: at 10 µM.

The target of test [2] is T2, Tyrosine-protein kinase ZAP-70 (Homo sapiens) (UniProt P43403).
T2 sequence (whole entry): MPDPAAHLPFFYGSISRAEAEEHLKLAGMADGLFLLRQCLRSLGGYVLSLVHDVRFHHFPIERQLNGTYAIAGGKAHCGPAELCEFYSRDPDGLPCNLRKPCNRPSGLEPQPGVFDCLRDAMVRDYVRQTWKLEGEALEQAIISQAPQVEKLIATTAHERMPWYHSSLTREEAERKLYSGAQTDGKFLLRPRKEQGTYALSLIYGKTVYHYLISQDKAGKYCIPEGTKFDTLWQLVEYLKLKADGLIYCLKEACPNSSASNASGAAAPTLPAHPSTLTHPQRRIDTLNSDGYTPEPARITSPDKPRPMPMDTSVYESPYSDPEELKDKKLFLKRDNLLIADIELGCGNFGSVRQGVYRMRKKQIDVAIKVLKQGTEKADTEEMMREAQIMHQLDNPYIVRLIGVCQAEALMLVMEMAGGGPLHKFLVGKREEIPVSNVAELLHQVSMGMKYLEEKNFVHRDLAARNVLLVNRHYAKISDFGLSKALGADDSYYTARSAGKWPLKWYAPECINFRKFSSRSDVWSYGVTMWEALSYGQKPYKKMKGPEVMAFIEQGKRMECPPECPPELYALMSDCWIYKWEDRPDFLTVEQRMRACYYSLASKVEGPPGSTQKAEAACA
The test can be described thus: Selectivity interaction (KinomeScan (DiscoverX)) EUB0000092b ZAP70. The following applies: at 10 µM.

Test [3] concerns the target T3, Dual specificity tyrosine-phosphorylation-regulated kinase 2 (Homo sapiens) (UniProt Q92630).
T3 sequence (whole entry): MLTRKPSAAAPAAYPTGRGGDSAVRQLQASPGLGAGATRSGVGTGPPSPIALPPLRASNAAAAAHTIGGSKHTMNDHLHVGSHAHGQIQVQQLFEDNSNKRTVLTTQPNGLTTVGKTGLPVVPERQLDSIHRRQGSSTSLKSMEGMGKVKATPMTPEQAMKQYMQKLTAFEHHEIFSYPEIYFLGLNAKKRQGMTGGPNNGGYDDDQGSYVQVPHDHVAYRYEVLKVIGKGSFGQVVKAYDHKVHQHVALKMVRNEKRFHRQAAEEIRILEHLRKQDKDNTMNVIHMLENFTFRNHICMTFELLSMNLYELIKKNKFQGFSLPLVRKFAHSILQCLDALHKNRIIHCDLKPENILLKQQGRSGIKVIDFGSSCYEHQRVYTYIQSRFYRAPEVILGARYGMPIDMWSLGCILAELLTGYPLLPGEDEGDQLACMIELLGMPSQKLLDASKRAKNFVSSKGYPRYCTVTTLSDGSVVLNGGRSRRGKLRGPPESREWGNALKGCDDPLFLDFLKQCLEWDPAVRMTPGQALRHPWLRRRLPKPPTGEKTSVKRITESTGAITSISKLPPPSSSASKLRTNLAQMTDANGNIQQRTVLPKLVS
Description: Selectivity interaction (KinomeScan (DiscoverX)) EUB0000607a DYRK2. Conditions: at 10 µM.

Test [4] deals with T4, Serine/threonine-protein kinase Sgk1 (Homo sapiens) (UniProt O00141).
T4 sequence (whole entry): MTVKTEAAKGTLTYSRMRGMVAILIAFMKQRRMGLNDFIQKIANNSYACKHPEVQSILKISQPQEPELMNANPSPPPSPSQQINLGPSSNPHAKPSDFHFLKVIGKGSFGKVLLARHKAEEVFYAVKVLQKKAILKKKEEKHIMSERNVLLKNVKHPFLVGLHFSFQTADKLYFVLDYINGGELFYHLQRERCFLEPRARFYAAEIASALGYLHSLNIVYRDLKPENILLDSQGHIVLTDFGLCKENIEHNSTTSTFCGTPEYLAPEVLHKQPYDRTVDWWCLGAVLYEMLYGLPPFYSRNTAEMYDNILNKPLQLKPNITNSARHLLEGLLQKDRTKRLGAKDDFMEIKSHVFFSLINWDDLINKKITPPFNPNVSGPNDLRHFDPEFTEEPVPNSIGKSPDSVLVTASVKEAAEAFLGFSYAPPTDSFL
The test can be described thus: Selectivity interaction (KinomeScan (DiscoverX)) EUB0000607a SGK1. The following applies: at 10 µM.

Test [5] concerns the target Mitogen-activated protein kinase kinase kinase 10 (Homo sapiens) (UniProt Q02779). Description: Selectivity interaction (Kinase panel (KiNativ target engagement assay in Jurkat cells)) EUB0001635a MAP3K10. The format is cell-based. Conditions: Selectivity number of off-targets 0.0, Selectivity number of targets 233.0, Source Knowledge https://www.sciencedirect.com/science/article/pii/S2451945619300674?via%3Dihub, at 1 µM.

Sequence of Mitogen-activated protein kinase kinase kinase 10 (Homo sapiens) (Q02779 whole entry, looked up): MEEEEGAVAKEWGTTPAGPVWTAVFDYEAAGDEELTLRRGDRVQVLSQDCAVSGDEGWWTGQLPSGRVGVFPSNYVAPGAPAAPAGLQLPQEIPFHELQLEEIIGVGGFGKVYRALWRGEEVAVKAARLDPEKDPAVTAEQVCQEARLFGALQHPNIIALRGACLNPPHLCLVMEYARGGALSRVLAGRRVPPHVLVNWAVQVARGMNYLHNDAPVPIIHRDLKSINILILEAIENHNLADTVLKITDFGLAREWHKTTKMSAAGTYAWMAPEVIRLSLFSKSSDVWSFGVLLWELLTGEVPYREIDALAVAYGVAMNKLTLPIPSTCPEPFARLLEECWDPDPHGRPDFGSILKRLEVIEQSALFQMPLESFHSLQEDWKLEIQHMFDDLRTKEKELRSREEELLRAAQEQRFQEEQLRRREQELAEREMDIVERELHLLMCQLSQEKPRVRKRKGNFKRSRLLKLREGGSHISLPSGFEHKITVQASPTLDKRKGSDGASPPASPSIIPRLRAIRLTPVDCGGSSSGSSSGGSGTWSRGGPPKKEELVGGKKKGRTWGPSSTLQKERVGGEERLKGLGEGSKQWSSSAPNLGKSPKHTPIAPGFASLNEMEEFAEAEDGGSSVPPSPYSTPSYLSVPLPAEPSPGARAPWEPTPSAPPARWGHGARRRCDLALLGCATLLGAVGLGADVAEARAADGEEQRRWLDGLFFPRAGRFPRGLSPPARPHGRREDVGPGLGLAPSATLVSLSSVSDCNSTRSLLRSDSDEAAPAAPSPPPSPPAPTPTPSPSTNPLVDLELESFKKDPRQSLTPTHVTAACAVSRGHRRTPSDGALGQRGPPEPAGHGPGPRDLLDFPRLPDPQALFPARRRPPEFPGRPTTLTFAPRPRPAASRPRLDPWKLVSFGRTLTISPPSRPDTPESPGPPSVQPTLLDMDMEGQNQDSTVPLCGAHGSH

Turning to `CCC(=O)N1CCN(c2ccc(-n3c(=O)ccc4cnc5ccc(-c6cnc7ccccc7c6)cc5c43)cc2C(F)(F)F)CC1`, the % of control is 80% in test [1] and 100% in test [2].

Consider `CNC(=O)Nc1ccc(-c2nc(N3CC4CCC(C3)O4)c3cnn(C4CCC5(CC4)OCCO5)c3n2)cc1`, for which the % of control in test [3] was determined as 90%; in test [4], 100%.

Regarding `C=CC(=O)Nc1ccc(C(=O)Nc2[nH]nc3c2CN(C(=O)N[C@H](CN(C)C)c2ccccc2)C3(C)C)cc1`, the % of engagement in test [5] is -31.2%.
